From patent publication US10864238B2, “Composition containing Poria cocos peel extract for treating neurodegenerative disorders” (NeuroBo Pharmaceuticals, Inc., priority 2014, dated 2020)

Columns and labels:
human Tau [pS199] = assay: Phosphorylated tau in neuronal cell line (ELISA); format: cell-based; settings: 10 ug/ml; SH-SY5Y; FIG. 11
Procedure: Phosphorylated tau levels were measured in order to confirm the inhibitory effect of Poria cocos peel extracts on tau hyper-phosphorylation. SH-SY5Y cells (1×10^6 cells/well) were seeded in 6-well culture plates and cultured in DMEM/F12 (Dulbecco's modified Eagle's medium) medium containing 10% FBS (fetal bovine serum) for 48 hours. After 5 days of differentiation using DMEM/F12 medium containing 10 μM retinoic acid and 3% FBS, after 6 hours of treatment with the Poria cocos peel extracts (10 or 100 ug/mL), Aβ42 was treated and cultured for a total of 48 hours. After cell lysis using RIPA buffer, the protein content was quantitated with BCA reagent purchased from Pierce. Phosphorylated tau was measured using human Tau [pS199] enzyme-linked immunosorbent assay (ELISA) KIT purchased from Invitrogen.

beta-nerve growth factor = assay: NGF level measurement in nerve cell line (ELISA); format: cell-based, human; settings: 10 ug/mL; SH-SY5Y; FIG. 12
Procedure: NGF levels were measured in order to determine the mechanism of cognitive improvement of the Poria cocos peel extracts. SH-SY5Y cells (1×10^6 cells/well) were inoculated on 6-well culture plates and cultured in DMEM/F12 (Dulbecco's modified Eagle's medium) medium containing 10% fetal bovine serum for 48 hours. After 5 days of differentiation using DMEM/F12 medium containing 10 μM retinoic acid and 3% FBS, the cells were treated with Poria cocos peel extracts (10 or 100 ug/ml). Cells were lysed using RIPA buffer, and protein content was quantitated with BCA reagent purchased from Pierce. NGF levels were measured using a beta-nerve growth factor human enzyme-linked immunosorbent assay (ELISA) KIT purchased from Abcam.

`COc1cc2c(cc1OC)C(=O)C(CC1CCN(Cc3ccccc3)CC1)C2` (centres unmarked) [Donepezil] was tested, and the “tau phosphorylation induced by Aβ42” value (human Tau [pS199]) was “did not show the inhibitory effect on tau phosphorylation” and the NGF production (beta-nerve growth factor) was “did not show NGF-related efficacy”.
